As usually defined, the Cmax is the peak of the concentration-time curve. Usually Tmax stands for the time from dosing to the highest level. For orientation: bioavailability means dose-corrected exposure relative to a reference, in per cent.

Read-outs that look alike come from different tables or passages of the source.

This is an account of results in US20100168112A1, “2-Substituted and 4-substituted aryl nitrone compounds” (RENOVIS, INC., priority 2004, published 2010).

A short description of series [1]: DPPH free radical-scavenging/antioxidant assay. Particulars: 50 μM DPPH in 80% methanol; 24 h time point; read-out: EC50 (concentration at which a compound reduces by 50% the peak absorbance of DPPH at 520 nm). It counts as biochemical. In a few lines:
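Compounds diluted 100-fold from DMSO stocks into 50 μM DPPH in 80% methanol; absorbance at 520 nm followed kinetically to steady state, with the 24 h reading used. EC50 interpolated from OD520 versus concentration; Trolox, BHA, PBN and S-PBN as positive controls, DMSO as vehicle.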
In general terms: Loss of DPPH colour is used to gauge radical scavenging.

The nature of series [2]: Solubility measurement at pH 7.4. It counts as physicochemical. Particulars: aqueous buffer, thermodynamic from solid, phosphate buffer pH 7.4, room temperature.
Series [3] can be described thus: Microsomal stability in rat liver microsomes. In kind it is in vitro ADME. Particulars: rat liver microsomes 0.5 mg/ml, 1 mM NADPH, ~500 ng/ml compound, 37° C. The protocol:
Frozen Sprague-Dawley rat liver microsomes (RLM) were thawed on ice and gently mixed before use. The final reaction mixture consisted of a nitrone compound of this invention (at ˜500 ng/ml), 1 mM NADPH, and 0.5 mg/ml of RLM protein in 0.1 M PBS (pH7.4), with organic solvent concentration not exceeding 1% (v/v). Per set of incubations, a positive control compound was included. The mixture was first pre-incubated 3 to 5 minutes at 37° C. without NADPH, and the reaction was then initialized by the addition of NADPH and incubated at 37° C. for up to 30 minutes. An aliquot of the reaction mixture was sampled at the initiation of the reaction and at designated time after reaction started. The drawn samples were quenched with acetonitrile, diluted with mobile phase to ensure the detection of test article in the linear range, and analyzed by LC/MS/MS. Half-life or percentage of remaining nitrone compound was calculated using standard methods. A similar method, or a slight variation of it, was used to test the stability of nitrones in human liver microsomes (HLM).
Background: Microsomes from liver hold many membrane-bound enzymes, among them those of drug oxidation.

A short description of series [4]: Pharmacokinetic evaluation following intravenous and oral administration in rats. In kind it is in vivo. Particulars: male, Sprague-Dawley; for Cmax / Tmax / bioavailability: 5 mg/kg; for Cmax: rat plasma; for Cmax / Tmax: oral gavage, 2 mg/mL at 2.5 mL/kg; for clearance / Vd / Tmax / bioavailability / half-life: plasma, rat; for clearance / Vd / half-life: 1 mg/kg; for clearance / Vd: intravenous administration, 1 mg/mL at 1.0 mL/kg; for clearance: read-out: CI (clearance) (converted); for Vd: read-out: Vd (volume of distribution); for bioavailability: po 2 mg/mL at 2.5 mL/kg vs iv 1 mg/mL at 1.0 mL/kg, dose-normalized, read-out: F (%) oral bioavailability; for half-life: intravenous, read-out: T1/2 elimination half life (converted). In outline: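 Male Sprague-Dawley rats, fasted, dosed iv (1 mg/mL formulation, 1.0 mL/kg, jugular or tail vein) or by oral gavage (2 mg/mL suspension, 2.5 mL/kg). Plasma sampled from 2 min to 480 min, some to 24 h, and quantified by LC-MS/MS (MRM). Parameters from noncompartmental analysis.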

Series [5] is described as follows: Microsomal stability in human liver microsomes. It counts as in vitro ADME. To be noted: NADPH, 37° C. In a few lines: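 Compound (~500 ng/ml) incubated at 37°C for up to 30 min with 0.5 mg/ml microsomal protein and 1 mM NADPH in 0.1 M PBS pH7.4, after 3–5 min preincubation without NADPH. Sprague-Dawley rat or human microsomes; acetonitrile-quenched timepoints analysed by LC/MS/MS for half-life or percent remaining.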

The subject of a further series is 1K1C rats. The experiment in a line: Kidney ischemia-reperfusion injury, one-kidney one-clip (1K1C) model, fractional excretion of sodium. In kind it is in vivo. Particulars: mean ± SEM. The protocol:
Rats were individually housed in a modified cage that was equipped with a raised mesh bottom to separate the fecal product from urine. Before the test, all animals were withheld from food and water overnight. In the morning of the test, normal saline (i.e., 0.9% sodium chloride) was given via oral gavage at […] (Lipschitz, W. L. Hadidian, Z. & Kerpcar, A.: Bioassay of diuretics., J. Pharmacol. Exp. Ther., 79: 97-110, 1943). Samples of blood and urine were collected (standard procedures) at time points (1 and/or 5 hrs after fluid intake) from animals, centrifuged, and kept at 4 degrees until analysis for factors that reflect renal functions. Sodium and creatinine levels were determined by Quality Clinical Labs, Inc. (Mountain View, Calif.). Sodium concentrations were determined by ion selective electrode (standard procedures). Creatinine levels were determined by the alkaline picrated (Jaffe) reaction as described (Liobat-Estelles, M., Sevillano-Cabeja, A. & Campines-Falco, P.: Kinetic chemometric studies of the determination of creatinine using the Jaffe reaction. Part I: kinetics of the reaction; analytical conclusion. Analyst, 11: 597-602, 1989). Fractional excretion of sodium (FENa+), a parameter for ion-handling by the kidney, was calculated, using the following equation: =UNa×Pcr/PNa×Ucr, where UNa is the concentration of sodium in urine; Pcr is the plasma concentration of creatinine; PNa is the […]; and Ucr is the concentration of creatinine in the urine.
After the data for the calculation of basal levels of FENa+ was obtained (Table 16), rats were anesthetized with pentobarbital (65 mg/kg, i.p.). The abdominal region was shaved with a safety razor and sterilized with povidone iodine solution. A midline incision was made and the right kidney was exposed. The right renal pedicle and right urether were both ligated twice with 4-0 sutures and cut between the ligations. The right kidney was then removed. 7 days later, these rats, after another overnight food-water deprivation, were randomly assigned into 3 groups and orally given either Compound 62 (50 mg/kg, at the volume of 1 ml/kg,p.o.) or its vehicle (i.e., 96% of 0.5% CMC and 4 of 20% Tween 80, at the volume of 1 ml/kg, p.o.) 1 hr before kidney ischemia was produced. Positive controls were performed using quercetin (30 mg/kg, i.p.) given 2 hrs before ischemia (Kahraman, A., Erkasap, N., Serteser, M. & Koken, T.: Protective effect of quercetin on renal ischemia/reperfusion injury in rats. J. Nephrol., 16: 219-224, 2003). Animals were then anesthetized and had their left kidneys exposed after opening of their abdominal cavities. A non-traumatic vascular clamp was applied to the left renal pedicle (the ischemia phase), which was released 45 min later (the reperfusion phase). Lipschitz test was then conducted to measure ion-handling capabilities. Normal saline was orally administered at […] as soon as the vascular clamp was released. 60- and 300-min after reperfusion, plasma and urine samples were obtained.

[6] abbreviates: 1K1C rats, Compound 62 50 mg/kg p.o. 1 hr before ischemia, quercetin 30 mg/kg i.p. 2 hrs before, 45 min ischemia.

On to `CC(C)(C)/[N+]([O-])=C/c1ccccc1S(=O)(=O)N1CCCCC1` [Compound 33, N-tert-Butyl-C-[2-(piperidine-1-sulfonyl)phenyl]nitrone], for which the EC50 in series [1] was > 1000 µM. Moreover, the solubility in series [2] (read-out: Solubility @ pH 7.4) was > 3.33 mM. In series [2] (read-out: Solubility @ pH 7.4 (μg/mL)), the solubility was > 1080 µg/mL. Further, in series [3], the “% of Nitrone Remaining at 30 min (Rat)” value is 0.3%. Also, in series [4], the Cmax was 0.01 µg/mL, the clearance is 2.17 L/h/kg, the Vd was 1.66 L/kg and the Tmax was found to be 4.98 min. Moreover, in series [4], the bioavailability is 0.1% and the half-life is 32.4 min.

As for `CC(C)S(=O)(=O)c1ccc(/C=[N+](\[O-])C(C)(C)C)c(S(=O)(=O)C(C)C)c1` [Compound 65, N-tert-Butyl-C-(2,4-bis-2-propanesulfonylphenyl)nitrone], the EC50 in series [1] lay in the range of 500 to 1000 µM. Also, the “% of Nitrone Remaining at 30 min (Rat)” value in series [3] is 78%. For the same compound, in series [4], the Cmax came to 0.339 µg/mL, the clearance is 1.89 L/h/kg, the Vd amounted to 0.98 L/kg and the Tmax was 14.4 min. For the same compound, in series [4], the bioavailability is 13.7% and the half-life is 21 min. Further, the “% of Nitrone Remaining at 30 min (Human)” value in series [5] was 94%.

In the case of `O=c1c(O)c(-c2ccc(O)c(O)c2)oc2cc(O)cc(O)c12` [Quercetin, quercetin, reference compound], in the series on 1K1C rats (setting [6]), the “1-hr post-ischemic FENa+ (%)” value turned out to be 0.54 ± 0.02 % and the “5-hr post-ischemic FENa+ (%)” value was 5.23 ± 4.43%. For the same compound, the “FENa+ (%) pre-surgery (basal) levels” value in the series with 1K1C rats (rats before 1K1C modeling, group baseline) is 1.60 ± 0.15%.
